Key:
FLT3 = target: T1, FLT3 (Homo sapiens, UniProt P36888); experiment: FLT3 kinase activity inhibition test (HTRF); format: biochemical; conditions: read-out: IC50, inhibitory effects on FLT3 kinase activity
T1 sequence (P36888 27-993): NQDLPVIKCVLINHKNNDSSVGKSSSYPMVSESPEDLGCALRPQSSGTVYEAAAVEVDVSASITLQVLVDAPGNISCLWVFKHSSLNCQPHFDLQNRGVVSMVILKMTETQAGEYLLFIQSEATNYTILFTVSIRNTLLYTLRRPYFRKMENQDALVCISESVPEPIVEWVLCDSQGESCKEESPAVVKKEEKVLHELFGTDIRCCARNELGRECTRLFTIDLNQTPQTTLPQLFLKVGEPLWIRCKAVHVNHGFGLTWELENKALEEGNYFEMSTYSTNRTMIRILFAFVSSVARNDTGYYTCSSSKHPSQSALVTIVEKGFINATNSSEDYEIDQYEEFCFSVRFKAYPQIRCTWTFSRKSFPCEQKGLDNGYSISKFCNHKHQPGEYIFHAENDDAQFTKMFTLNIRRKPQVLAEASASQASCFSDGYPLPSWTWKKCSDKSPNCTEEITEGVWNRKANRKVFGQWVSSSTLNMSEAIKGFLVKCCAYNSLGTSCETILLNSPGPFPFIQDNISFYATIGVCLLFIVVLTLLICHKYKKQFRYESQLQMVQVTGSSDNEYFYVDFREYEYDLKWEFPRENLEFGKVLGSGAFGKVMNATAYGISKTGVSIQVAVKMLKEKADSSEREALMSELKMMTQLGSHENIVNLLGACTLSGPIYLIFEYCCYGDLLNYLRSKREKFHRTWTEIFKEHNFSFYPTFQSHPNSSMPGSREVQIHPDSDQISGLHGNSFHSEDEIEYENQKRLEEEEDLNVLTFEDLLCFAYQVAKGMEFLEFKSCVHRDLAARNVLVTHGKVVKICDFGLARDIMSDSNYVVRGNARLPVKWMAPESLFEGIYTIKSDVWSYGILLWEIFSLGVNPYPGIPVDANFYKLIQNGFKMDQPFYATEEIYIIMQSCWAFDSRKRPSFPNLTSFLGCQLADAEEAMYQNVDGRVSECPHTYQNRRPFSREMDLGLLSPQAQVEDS
Method: Tested compounds: compounds prepared in the Examples of this invention.
Prepare compound stock solution: dissolve the test compound in 100% DMSO to make a 10 mM stock solution. Dilute the stock solution of the test compound by 5 times with 100% DMSO, make a 4-fold equal dilution in a 96-well dilution plate, add 1 μL of the compound to 39 μL of kinase reaction buffer (1×kinase buffer, 5 mM MgCl2, 1 mM DTT), and shake on a microplate shaker for 20 minutes. 4×Positive control (4 μL of positive compound solution of the starting concentration, add 196 μL of kinase buffer) and 4×negative control (4 μL of 100% DMSO, add 196 μL of kinase buffer).
(1) Use 1×kinase reaction buffer to prepare 2.5×FLT3 kinase solution (160 μM), transfer 2 μL of the kinase solution to the 384 reaction plate, and add 1 μL of the test compound solution of gradient concentration to the 384 reaction plate (Greiner, Cat #784075), centrifuge for 1 minute (1000 rpm), and incubate at 25° C. for 10 minutes.
(2) Use 1×kinase reaction buffer to prepare 2.5×TK-substrate-biotin (2.5 μM) and 2.5×ATP (2.5 μM), mix well, and add 2 μL of the TK-substrate-biotin/ATP solution to the 384 reaction plate, centrifuge for 30 seconds (1000 rpm), and incubate at 25° C. for 40 minutes.
(3) Use HTRF detection buffer to prepare 2×Sa-XL 665 (125 nM) and 1×TK-antibody-Cryptate. Add 5 μL of a mixture of Sa-XL 665 and TK-antibody-Cryptate solutions to each well, centrifuge for 30 seconds (1000 rpm), and react at room temperature for 1 hour.
(4) The fluorescence signal is read using a Biotek multi-function plate reader, and the IC50 (half inhibitory concentration) of the compound is obtained using a four-coefficient nonlinear fitting formula.

HPK1 = HPK1 (Homo sapiens, UniProt Q92918); experiment: HPK1 kinase activity inhibition test (ADP-Glo, luminescence); format: biochemical; conditions: 2 μM ATP, 5 nM HPK1, read-out: IC50, inhibitory effects on HPK1 kinase activity
Chain of HPK1 (Q92918 whole entry): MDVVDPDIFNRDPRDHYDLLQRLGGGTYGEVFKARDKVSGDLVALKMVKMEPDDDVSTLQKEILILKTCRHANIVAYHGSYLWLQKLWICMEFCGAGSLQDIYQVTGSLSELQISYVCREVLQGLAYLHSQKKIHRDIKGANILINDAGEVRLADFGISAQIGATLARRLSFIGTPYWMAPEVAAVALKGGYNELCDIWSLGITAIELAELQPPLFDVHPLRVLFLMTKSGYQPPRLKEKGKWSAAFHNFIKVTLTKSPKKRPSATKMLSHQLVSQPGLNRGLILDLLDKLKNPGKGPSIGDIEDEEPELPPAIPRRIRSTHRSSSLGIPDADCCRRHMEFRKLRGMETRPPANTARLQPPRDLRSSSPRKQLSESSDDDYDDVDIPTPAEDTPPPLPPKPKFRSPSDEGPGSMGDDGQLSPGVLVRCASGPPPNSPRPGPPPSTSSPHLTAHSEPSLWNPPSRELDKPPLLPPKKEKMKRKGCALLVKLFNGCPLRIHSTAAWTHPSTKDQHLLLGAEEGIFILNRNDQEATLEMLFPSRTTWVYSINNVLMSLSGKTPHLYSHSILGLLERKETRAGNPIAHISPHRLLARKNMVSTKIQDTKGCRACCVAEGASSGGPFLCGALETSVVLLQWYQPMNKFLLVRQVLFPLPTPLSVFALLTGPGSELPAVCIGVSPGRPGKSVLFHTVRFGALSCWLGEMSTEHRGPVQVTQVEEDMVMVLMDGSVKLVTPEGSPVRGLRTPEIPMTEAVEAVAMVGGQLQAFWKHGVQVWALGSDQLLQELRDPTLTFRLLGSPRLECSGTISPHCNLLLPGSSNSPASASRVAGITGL
How it was run: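 Autophosphorylation assay without added substrate: HPK1 preincubated with compound 10 min at 25 °C, then ATP added for 60 min at 25 °C; final DMSO 0.5%. ADP measured by ADP-Glo luminescence; IC50 from four-parameter nonlinear fit.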

With CN1CCN(c2ncc3cc2OCCCOc2cccc(F)c2-c2cc4c-3n[nH]c4cn2)CC1 [Compound 3, 16-fluoro-5-(4-methylpiperazin-1-yl)-7,11-dioxa-4,19,22,23-tetraazapentacyclo[16.5.2.1^2,6.0^12,17.0^21,24]hexacosa-1(23),2(26),3,5,12,14,16,18,20,24-decaene] the IC50 (FLT3) was 5 to 50 nM and the IC50 (HPK1) was no more than 5 nM.

In the case of CN1CCN(c2ccc3cc2OCCCOc2cccc(F)c2-c2cc4c-3n[nH]c4cn2)CC1 [Compound 6, 16-fluoro-5-(4-methylpiperazin-1-yl)-7,11-dioxa-19,22,23-triazapentacyclo[16.5.2.1^2,6.0^12,17.0^21,24]hexacosa-1(23),2(26),3,5,12,14,16,18,20,24-decaene], the IC50 (FLT3) is reported as no more than 5 nM and the IC50 (HPK1) is reported as no more than 5 nM.

Work on CN1CCN(c2ccc3cc2OCCOCc2cccc(F)c2-c2cc4c-3n[nH]c4cn2)CC1 [Compound 9, 16-fluoro-5-(4-methylpiperazin-1-yl)-7,10-dioxa-19,22,23-triazapentacyclo[16.5.2.1^2,6.0^12,17.0^21,24]hexacosa-1(23),2(26),3,5,12,14,16,18,20,24-decaene] yielded an IC50 (FLT3) of no more than 5 nM and an IC50 (HPK1) of no more than 5 nM.

From patent US20240383911A1, “AZAINDAZOLE MACROCYCLE COMPOUNDS AND USES THEREOF” (BROADENBIO CO., LTD, priority 2021, published 2024)
